From paper PMC8041284, “Tunable Methacrylamides for Covalent Ligand Directed Release Chemistry” (Journal of the American Chemical Society, 2021)
Like-named read-outs stand apart in the source and are kept apart here.

Biological target: BTK (Homo sapiens, UniProt Q06187)
Assay: biochemical
[1] = read-out: BTK inhibition (%), 0.75 uM BTK, […] probe 3l, 15 min preincubation

BTK, sequence (Q06187 402-655 limits assumed): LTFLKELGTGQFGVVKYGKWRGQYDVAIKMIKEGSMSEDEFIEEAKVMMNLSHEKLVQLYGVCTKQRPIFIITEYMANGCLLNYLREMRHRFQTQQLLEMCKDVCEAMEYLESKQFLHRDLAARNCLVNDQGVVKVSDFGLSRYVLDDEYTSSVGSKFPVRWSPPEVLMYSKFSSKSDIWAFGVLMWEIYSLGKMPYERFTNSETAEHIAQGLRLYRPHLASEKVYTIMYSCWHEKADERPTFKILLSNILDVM

SMILES | inhibition at 10 µM [1] | inhibition at 10 µM (read-out: BTK inhibition (%))
CC(C)(C)C1CCC(CC2=C(O)c3ccccc3C(=O)C2=O)CC1 (stereo not drawn) [PCM-0214772] | 3.1% | –
NNc1nnc(NN)c2ccccc12 [PCM-0215993] | 9.3% | –
CC(C)C[C@H](NC(=O)[C@H](Cc1ccccc1)NC(=O)c1cnccn1)B(O)O [PCM-0094909] | 8.6% | –
Cn1cc(-c2ccncc2)c(-c2ccc(OCc3ccc4ccccc4n3)cc2)n1 [PCM-0095695] | -33.5% | –
O=C(O)CNC(=O)C1C(=O)N(C2CCCCC2)C(=O)N(C2CCCCC2)C1=O [PCM-0215600] | – | 13.9%
NC[C@H]1O[C@H](O[C@H]2[C@H](O)[C@@H](O[C@H]3O[C@H](CO)[C@@H](O)[C@H](N)[C@H]3O)[C@H](N)C[C@@H]2N)[C@H](N)C[C@@H]1O [PCM-0086125] | -14.5% | –
CN1CCN(c2ccc(Nc3ncc4cc(C#N)c(=O)n(C5CCCC5)c4n3)cc2)CC1 [PCM-0215612] | 19.3% | –
Cc1cc(S(=O)(=O)O)c2c(C)ccc(C(C)C)cc1-2 [PCM-0216127] | 37.2% | –
CO[C@@H](C(=O)N1Cc2[nH]nc(NC(=O)c3ccc(N4CCN(C)CC4)cc3)c2C1)c1ccccc1 [PCM-0094888] | 85.5% | –
CC1(C)OC[C@@H](COC(=O)CCc2ccc(OC[C@@H](O)CNCCNC(=O)N3CCOCC3)cc2)O1 [PCM-0216254] | -3.1% | –
CCCCCCCCCC(=O)OCC(COC(=O)CCCCCCCCC)OC(=O)CCCCCCCCC [PCM-0216614] | 11.6% | –
COCCc1ccc(OCC(O)CNC(C)C)cc1 (stereo not drawn) [PCM-0065348] | 17% | –
CC(C)C1CCC(C(=O)N[C@H](Cc2ccccc2)C(=O)O)CC1 (stereo partly drawn) [PCM-0095239] | -4.7% | –
CC[C@H](NC(=O)[C@H](C)NC)C(=O)N1C[C@@H](O)C[C@H]1Cc1c(-c2[nH]c3cc(F)ccc3c2C[C@@H]2C[C@H](O)CN2C(=O)[C@H](CC)NC(=O)[C@H](C)NC)[nH]c2cc(F)ccc12 [PCM-0214572] | 5.4% | –
C[C@@H]1CCCC2=CC(=O)[C@@H]3[C@@H](C3(C)C)[C@]21C [PCM-0216523] | -8.5% | –
COc1ccc(C(=O)CC2(O)C(=O)Nc3c(Cl)ccc(Cl)c32)cc1 (stereo not drawn) [PCM-0215405] | 8.5% | –
O=C(Nc1cccc2c(=O)cc(-c3nn[nH]n3)oc12)c1ccc(OCCCCc2ccccc2)cc1 [PCM-0095155] | 73.8% | –
CC(=O)O[C@]1(C(C)=O)CC[C@H]2[C@@H]3C=C(C)C4=CC(=O)CC[C@]4(C)[C@H]3CC[C@@]21C [PCM-0214613] | -4.8% | –
Cc1cc(Nc2cc(Cl)nc(Oc3ccc([N+](=O)[O-])cc3)n2)n[nH]1 [PCM-0215861] | 12.4% | –
C=C1CC[C@@H]2[C@](C)(CO)[C@H](O)CC[C@@]2(C)[C@@H]1C/C=C1/C(=O)OC[C@H]1O [PCM-0094814] | -6.2% | –
N#Cc1ccc2ncnc(NCCc3ccccc3)c2c1 [PCM-0215834] | -30.3% | –
O=C(N/N=C/c1cc(O)c(O)cc1O)c1cc2ccccc2cc1O [PCM-0215496] | 77.2% | –
O=S(=O)(Cl)c1ccc(-c2ccccc2)cc1 [PCM-0216165] | -8.5% | –
C[N+]1(C)C2CCC1CC(OC(=O)C(O)c1ccccc1)C2 (stereo not drawn) [PCM-0095577] | -9.3% | –
C=C[C@]1(C)C[C@@H](OC(=O)CSC2C[C@H]3CC[C@@H](C2)N3C)[C@]2(C)[C@H](C)CC[C@]3(CCC(=O)[C@H]32)[C@@H](C)[C@@H]1O (stereo partly drawn) [PCM-0095603] | 3.9% | –

SMILES | inhibition at 10 µM [1] | inhibition at 10 µM (read-out: BTK inhibition (%))
CN(C)N(C)C(=O)[C@@]1(Cc2ccccc2)CCCN(C(=O)[C@@H](Cc2c[nH]c3ccccc23)NC(=O)C(C)(C)N)C1 [PCM-0215100] | 4.6% | –
CC(=O)O/N=C1/C(c2c(O)[nH]c3cc(Br)ccc23)=Nc2ccccc21 [PCM-0215536] | 60.7% | –
C[C@@H]1O[C@@H](OC[C@H]2O[C@@H](Oc3cc(O)c4c(=O)cc(-c5ccc(O)cc5)oc4c3)[C@H](O[C@@H]3O[C@@H](C)[C@H](O)[C@@H](O)[C@H]3O)[C@@H](O)[C@@H]2O)[C@H](O)[C@H](O)[C@H]1O [PCM-0216389] | 13.9% | –
C[C@]12N[C@H](Cc3ccccc31)c1ccccc12 [PCM-0064989] | – | 3.9%
CC(C)(O)[C@@H]1CC[C@](C)([C@H]2[C@@H](O)C[C@@]3(C)[C@@H]4C[C@H](O)[C@H]5C(C)(C)[C@@H](O)CC[C@@]56C[C@@]46CC[C@]23C)O1 [PCM-0215101] | -6.9% | –
NNC(=O)c1ccncc1 [PCM-0085769] | 2.3% | –
CCC[C@H](N[C@@H](C)C(=O)N1[C@H](C(=O)O)C[C@@H]2CCCC[C@@H]21)C(=O)OCC [PCM-0095182] | -4.3% | –
Nc1ncnc2c1ncn2[C@@H]1O[C@H](COP(=O)(O)OP(=O)(O)O)[C@@H](O)[C@H]1O [PCM-0216291] | 3.1% | –
CN(NC(=O)CC(=O)NN(C)C(=S)c1ccccc1)C(=S)c1ccccc1 [PCM-0094978] | -6.9% | –
C[C@@H](N)C1CCC(C(=O)Nc2ccncc2)CC1 (stereo partly drawn) [PCM-0094977] | -2.1% | –
COCCOc1nc(-c2ccc(Cl)c(Cl)c2)n(-c2ccc(NC(=O)CCl)cc2)n1 [PCM-0215327] | 106% | –
CC1=CC(=O)[C@H]2C[C@@H]1C2(C)C [PCM-0216612] | 7.7% | –
COc1cc(C(=O)NS(=O)(=O)c2ccccc2C)ccc1Cc1cn(C)c2ccc(NC(=O)OC3CCCC3)cc12 [PCM-0086066] | 47.6% | –
Nc1nc(NC2CC2)cc(-c2cccc(Cl)c2Cl)n1 [PCM-0215420] | 28.6% | –
CCCCNC(=O)NS(=O)(=O)c1ccc(C)cc1 [PCM-0064855] | -11.7% | –
C=CC(=O)Nc1cc(N2CCN(CC)CC2)ccc1Nc1cc(N(C)C(=O)Nc2c(Cl)c(OC)cc(OC)c2Cl)ncn1 [PCM-0215942] | 19.3% | –
O=C(O)c1ccc(N2C(=O)/C(=C/c3ccc(-c4ccc([N+](=O)[O-])cc4)o3)C=C2c2ccccc2)cc1 [PCM-0095764] | 98.1% | –
CN1CCC(=C2c3ccccc3CCn3c(C=O)cnc32)CC1 [PCM-0214821] | 2.1% | –
COc1cc2ncnc(Nc3ccc(F)c(Cl)c3)c2cc1OCCCN1CCOCC1 [PCM-0086349] | 2.1% | –
O=P(O)(O)OC1C(OP(=O)(O)O)C(OP(=O)(O)O)C(OP(=O)(O)O)C(OP(=O)(O)O)C1OP(=O)(O)O (stereo not drawn) [PCM-0215940] | 21.3% | –
N#CC(C#N)=Cc1ccc(O)c(O)c1 [PCM-0064867] | 54.5% | –
Cc1cc2c(s1)Nc1ccccc1N=C2N1CCN(C)CC1 [PCM-0064824] | -8.6% | –
O=C1c2ccc(Nc3ccc(F)cc3F)cc2CCc2ccc(OC[C@H](O)CO)cc21 [PCM-0215248] | 13.1% | –
N=C(N)c1ccc2cc(OC(=O)c3ccc(N=C(N)N)cc3)ccc2c1 [PCM-0095060] | -1.6% | –
CC1(C)O[C@H]1COc1c2ccoc2cc2oc(=O)ccc12 [PCM-0216499] | 0.8% | –

SMILES | inhibition at 10 µM [1] | inhibition at 10 µM (read-out: BTK inhibition (%))
C=CCc1ccc(OC(C)=O)c(OC)c1 [PCM-0216623] | 8.5% | –
O=C(O)CC(O)C(=O)O (stereo not drawn) [PCM-0216336] | -11.6% | –
NC(=O)[C@@H]1CC[C@@H]2CN1C(=O)N2OS(=O)(=O)O [PCM-0214883] | -9.3% | –
O=C(Cn1ccnc1[N+](=O)[O-])NCc1ccccc1 [PCM-0214934] | 3.1% | –
CC1(C)O[C@@H]2C[C@H]3[C@@H]4CCC5=CC(=O)C=C[C@]5(C)[C@@]4(F)[C@@H](O)C[C@]3(C)[C@]2(C(=O)CO)O1 [PCM-0095180] | 6.9% | –
COc1cc(C)[nH]c(=O)c1CNC(=O)c1c(C)n([C@H](C)C2CCN(CC(F)(F)F)CC2)c2ccccc12 [PCM-0214592] | 21.6% | –
Cc1ccccc1C(C(=O)NC1CCCCC1)N(C(=O)Cn1ccnc1C)c1cccc(F)c1 (stereo not drawn) [PCM-0215210] | -6.9% | –
CC1(C)O[C@H]2CC(=O)OC[C@]23[C@H]2CC[C@@]4(C)[C@H](c5ccoc5)OC(=O)[C@H]5O[C@]54[C@]2(C)C(=O)C[C@@H]13 [PCM-0214679] | -3.9% | –
CCc1ccc(C(=O)C(C)CN2CCCCC2)cc1 (stereo not drawn) [PCM-0215109] | -24.1% | –
COC(=O)C1=CO[C@@H](O[C@@H]2O[C@H](CO)[C@@H](O)[C@H](O)[C@H]2O)[C@@H]2[C@@H](C)CC(=O)[C@]12O [PCM-0216345] | -3.1% | –
Cc1cc(C)nc(SCC(=O)Nc2ncc(Cc3cccc4ccccc34)s2)n1 [PCM-0215537] | 2.3% | –
CNC(=O)c1ccccc1Nc1nc(Nc2ccc(N3CCOCC3)cc2OC)ncc1Cl [PCM-0095447] | 67.6% | –
C[C@H](NC(=O)C(=O)Nc1ccccc1C(C)(C)C)C(=O)N[C@@H](CC(=O)O)C(=O)COc1c(F)c(F)cc(F)c1F [PCM-0215672] | -17.9% | –
CCn1c(C(=O)N(C2CC2)C2CC2)cc2c3c(ncn3C)c(Nc3cc(C)n(C)n3)nc21 [PCM-0215708] | 3.4% | –
C[C@H](CCC(=O)O)[C@H]1CC[C@H]2[C@@H]3CC[C@@H]4C[C@H](O)CC[C@]4(C)[C@H]3C[C@H](O)[C@]12C [PCM-0214839] | 11.7% | –
COc1cc(/C=C/C(=O)CC(=O)/C=C/c2ccc(O)c(OC)c2)ccc1O [PCM-0091011] | 102% | –
O=C(O)C(Cc1c[nH]c2ccccc12)N1C(=O)c2ccccc2C1=O (stereo not drawn) [PCM-0095449] | 7.6% | –
NC(=O)N1c2ccccc2C=Cc2ccccc21 [PCM-0064618] | 9.3% | –
CC(C)c1cccc(O)c(=O)c1 [PCM-0215059] | 3.9% | –
COc1cc2c(=O)c3c(O)c([C@@H]4O[C@H](CO[C@@H]5OC[C@](O)(CO)[C@H]5O)[C@@H](O)[C@H](O)[C@H]4O)c(O)cc3oc2cc1O [PCM-0216492] | -13.1% | –
COc1cc2nccc(Oc3ccc(NC(=O)c4cn(C(C)C)c(=O)n(-c5ccc(F)cc5)c4=O)cc3F)c2cc1OC [PCM-0215831] | 12.4% | –
O=C(O)c1ccc2c3c1cccc3c(=O)n1c3ccccc3nc21 [PCM-0215754] | 13.8% | –
Cc1cc([N+](=O)[O-])ccc1NS(=O)(=O)c1cc(Cl)ccc1Cl [PCM-0215330] | 11.6% | –
Cc1c[nH]c(/C=C2\C(=O)Nc3ccccc32)c1CCC(=O)O [PCM-0216652] | 83.4% | –
C[C@H]1CCC/C=C/[C@@H]2C[C@H](O)C[C@H]2[C@H](O)/C=C/C(=O)O1 [PCM-0095573] | 0.8% | –
